Source: patent publication US20250214925A1, “CATIONIC LIPID, LIPOSOME, LIPID NANOPARTICLE, AND USE” (CARCELL BIOPHARMA LTD., priority 2022, published 2025)

What was measured:
[1] = system: mice; assay: In vivo delivery of Ffluc mRNA LNP in mice, intravenous administration, luminescence relative to MC3; set-up: species or system mice (female Balb/C); details: fold change in luminescence intensity relative to MC3; 0.06 mg/kg tail vein; 6 h after injection
Experimental: The prepared encapsulation solution was applied to mice in the following manner, and its delivery efficiency in mice was tested. Among them, DLin-MC3-DMA (MC3) was a cationic liposome for delivering small nucleic acids that was approved by the FDA for marketing in 2018, which has high nucleic acid drug delivery efficiency and biosafety, and was usually used as the industry gold standard in the screening process of cationic lipids. In the evaluation of mice experiments, the ratio of nucleic acid delivery efficiency normalized to MC3 was greater than 0.1, which was considered to be a cationic lipid with high delivery efficiency.
1. The LNP solution was diluted with 50 mM TBS, pH 7.4 to a concentration of 0.1 mg/mL mRNA.
2. The mice involved in this study were female Balb/C, weighing 18-22 g, 6-8 weeks old, with 5 mice in each group.
3. The dosing solution was kept at 4° C. prior to injection.
4. Each mice received 0.06 mg/kg via tail vein injection.
5. The mice were injected intraperitoneally with 200 μL of 1.5 mg/mL D-luciferin solution 6 h after injection.
6. The in vivo luminescence images of the mice were obtained using the IVIS system (Aniview).
7. The luminescence intensity of each mice was measured using Aniview software.
8. MC3 lipid nanoparticles were used as a positive control. The in vivo efficacy of each cationic lipid tested was recorded as the fold change in luminescence intensity relative to MC3 (ratio normalized to MC3).

[2] = LNP size and PDI by dynamic laser light scattering; type: physicochemical; details: LNP: 50% cationic lipid, 38.5% cholesterol, 10% DSPC, 1.5% DMG-PEG2000; Ffluc mRNA
Experimental: (§1) 1. The cationic lipid (50 mg/mL) prepared in the above examples of the present disclosure, cholesterol (20 mg/mL), DSPC (20 mg/mL) and DMG-PEG2000 (20 mg/mL) were dissolved in ethanol, and the solution was placed in a 55° C. metal thermostatic bath as needed to aid dissolution, to obtain a lipid mixture with the following molar composition: 1.5% DMG-PEG2000, 50% cationic lipid, 38.5% cholesterol, and 10% DSPC.
(§2) 2. The mRNA encoding Ffluc was diluted with 10 mM pH 4.0 citrate buffer to prepare a 0.2 mg/mL mRNA solution.
(§3) 3. The lipid mixture prepared in step 1 was mixed with the mRNA solution prepared in step 2 using a syringe pump with a tee at a total flow rate of 40 mL/min.
(§4) 4. The LNP mixture was collected after the three-way mixing and placed in a dialysis bag with a molecular weight cut-off of 100 KDa.
(§5) 5. The LNP mixture was dialyzed overnight against 50 mM Tris-buffered saline, pH 7.4.
(§6) 6. Sieving, and subsequent measurement of the sieved LNP to measure the PDI of the LNP by dynamic laser light scattering; to measure the mRNA encapsulation efficiency and concentration by Ribogreen assay; and to measure the pKa by TNS-α assay.

[3] = mRNA encapsulation efficiency of LNP by Ribogreen assay; type: physicochemical; details: LNP: 50% cationic lipid, 38.5% cholesterol, 10% DSPC, 1.5% DMG-PEG2000; Ffluc mRNA
Experimental: as §1, §2, §3, §4, §5, §6

| Compound | PDI [2] | Size (nm) [2] | Encapsulation Rate [3] | In Vivo Efficacy Normalized To Mc3 In Mice (Intravenous Injection) [1] |
| --- | --- | --- | --- | --- |
| 3-((((2-(dimethylamino)ethoxy)carbonyl)oxy)-2-((((E)-3-hexylundec-2-enoyl)oxy)methyl)propyl(97,127)-octadeca-9,12-dienoate [CPL-203] | – | – | – | 0.23 |
| CCCCCCCC/C(=C/C(=O)OCCCCCN(CCCCO)CCCCCOC(=O)/C=C(\CCCCCC)CCCCCCCC)CCCCCC [CPL-003, ((4-hydroxybutyl)azanediyl)bis(pentane-5,1-diyl)(2E,2′E)-bis(3-hexylundec-2-enoate)] | 0.205 | 98 nm | 92% | 1.55 |
| CCCCCCC/C(=C/C(=O)OCCCCN(CCCO)CCCCOC(=O)/C=C(\CCCCCC)CCCCCCC)CCCCCC [CPL-031, ((3-hydroxypropyl)azanediyl)bis(butane-4,1-diyl) (2E,2′E)-bis(3-hexyldec-2-enoate)] | 0.2448 | 92.39 nm | 94% | 0.75 |
| CCCCCCCC/C(=C/C(=O)OCCCCCN(CCCO)CCCCCOC(=O)/C=C(\CCC)CCCCCCCC)CCC [CPL-039, ((3-hydroxypropyl)azanediyl)bis(pentane-5,1-diyl)(2E,2′E)-bis(3-propylundec-2-enoate)] | 0.2202 | 97.61 nm | 94% | 1.44 |
| CCCCCCCC/C(=C/C(=O)OCCCCCN(CCCO)CCCCCOC(=O)/C=C(\CCCC)CCCCCCCC)CCCC [CPL-043, ((3-hydroxypropyl)azanediyl)bis(pentane-5,1-diyl)(2E,2′E)-bis(3-butylundec-2-enoate)] | 0.1723 | 77.48 nm | 95% | 1.58 |
| CCCCCCCCCC/C(=C/C(=O)OCCCCCN(CCCO)CCCCCOC(=O)/C=C(\CCCC)CCCCCCCCCC)CCCC [CPL-044, ((3-hydroxypropyl)azanediyl)bis(pentane-5,1-diyl)(2E,2′E)-bis(3-butyltridec-2-enoate)] | 0.15 | 78.4 nm | 98% | 1.26 |
| CCCCCCCC/C(=C/C(=O)OCCCCCCN(CCCO)CCCCCCOC(=O)/C=C(\CCCCC)CCCCCCCC)CCCCC [CPL-047, ((3-hydroxypropyl)azanediyl)bis(hexane-6,1-diyl) (2E,2′E)-bis(3-pentylundec-2-enoate)] | 0.25 | 114.7 nm | 96% | 1.59 |
| CCCCC/C=C\C/C=C\CCCCCCCC(=O)OCC(COC(=O)/C=C(\CCCCCCC)CCCCCCCC)COC(=O)OCCN(C)C (centres unmarked) [CPL-208, 3-(((2-(dimethylamino)ethoxy)carbonyl)oxy)-2-((((E)-3-heptylundec-2-enoyl)oxy)methyl)propyl(9Z,12Z)-octadeca-9,12-dienoate] | 0.2382 | 96.3 nm | 95% | – |
| CCCCC/C=C\C/C=C\CCCCCCCC(=O)OCC(COC(=O)C=C(CCCCCCCCCC)CCCCCCCCCC)COC(=O)OCCCN(C)C (centres unmarked) [CPL-234, 3-((3-decyltridec-2-enoyl)oxy)-2-((((3-(dimethylamino)propoxy)carbonyl)oxy)methyl)propyl(9Z,12Z)-octadeca-9,12-dienoate] | – | – | – | 0.96 |
| CCCCC/C=C\C/C=C\CCCCCCCC(=O)OCC(COC(=O)C=C(CCCCCCCCCC)CCCCCCCCCC)COC(=O)OCC(C)(C)CN(C)C (centres unmarked) [CPL-322, 3-((3-decyltridec-2-enoyl)oxy)-2-((((3-(dimethylamino)-2,2-dimethylpropoxy)carbonyl)oxy)methyl)propyl(9Z,12Z)-octadeca-9,12-dienoate] | 0.1302 | 96.21 nm | 94% | – |
| CCCCC/C=C\C/C=C\CCCCCCCC(=O)OCC(COC(=O)/C=C(\CCCCC)CCCCCC)COC(=O)OCCCN1CCN(C)CC1 (centres unmarked) [CPL-398, 3-(((3-(4-methylpiperazin-1-yl)propoxy)carbonyl)oxy)-2-((((E)-3-pentylnonan-2-enoyl)oxy)methyl)propyl(9Z,12Z)-octadeca-9,12-dienoate] | 0.0778 | 115.7 nm | 97% | – |
| CCCCC/C=C\C/C=C\CCCCCCCC(=O)OCC(COC(=O)/C=C(/CCCCCCCC)CCCCCCCCCC)COC(=O)OCCCN1CCN(C)CC1 (centres unmarked) [CPL-409, 3-(((3-(4-methylpiperazin-1-yl)propoxy)carbonyl)oxy)-2-((((Z)-3-octyltridec-2-enoyl)oxy)methyl)propyl(9Z 12Z)-octadeca-9,12-dienoate] | 0.1474 | 94.97 nm | 96% | – |
| CCCCCCCCCC/C(=C/C(=O)OCCCCCN(CCCO)CCCCCOC(=O)/C=C(\CCCC)CCCCCCCCCC)CCC [CPL-1092] | – | – | – | 0.83 |

The next lines start with results.

| PDI [2] | Size (nm) [2] | Encapsulation Rate [3] | Compound | In Vivo Efficacy Normalized To Mc3 In Mice (Intravenous Injection) [1] |
| --- | --- | --- | --- | --- |
| 0.0594 | 62.9 nm | 96% | CCCCC/C=C\C/C=C\CCCCCCCC(=O)OCC(COC(=O)C=C(CCCCCCCCC)CCCCCCCCC)COC(=O)OCCCN(CC)CC (centres unmarked) [CPL-001-01, 3-(((3-(diethylamino)propoxy)carbonyl)oxy)-2-(((3-nonyldodec-2-enoyl)oxy)methyl)propyl(9Z,12Z)-octadeca-9,12-dienoate] | 2.00 |
| 0.1692 | 90.11 nm | 91% | CCCCCCCC/C(=C\C(=O)OCCCCN(CCCO)CCCCOC(=O)/C=C(/CCCCCCC)CCCCCCCC)CCCCCCC [CPL-032, ((3-hydroxypropyl)azanediyl)bis(butane-4,1-diyl)(2Z,2′Z)-bis(3-heptylundec-2-enoate)] | 1.18 |
| 0.2607 | 119.6 nm | 97% | CCCCC/C=C\C/C=C\CCCCCCCC(=O)OCC(COC(=O)/C=C(\CCC)CCCCCC)COC(=O)OCCC1CCN(C)CC1 (centres unmarked) [CPL-280, 3-(((2-(1-methylpiperidin-4-yl)ethoxy)carbonyl)oxy)-2-((((E)-3-propylnon-2-enoyl)oxy)methyl)propyl(9Z,12Z)-octadeca-9,12-dienoate] | – |
| 0.1371 | 83 nm | 97% | CCCCC/C=C\C/C=C\CCCCCCCC(=O)OCC(COC(=O)/C=C(\CCCCC)CCCCCCCC)COC(=O)OCCC1CCN(C)CC1 (centres unmarked) [CPL-289, 3-(((2-(1-methylpiperidin-4-yl)ethoxy)carbonyl)oxy)-2-((((E)-3-pentylundec-2-enoyl)oxy)methyl)propyl(9Z,12Z)-octadeca-9,12-dienoate] | – |
| 0.1615 | 105.5 nm | 98% | CCCCC/C=C\C/C=C\CCCCCCCC(=O)OCC(COC(=O)/C=C(\CCCCC)CCCCCCCCCC)COC(=O)OCCC1CCN(C)CC1 (centres unmarked) [CPL-290] | – |
| 0.0937 | 76.44 nm | 93% | CCCCC/C=C\C/C=C\CCCCCCCC(=O)OCC(COC(=O)/C=C(\CCCC)CCCCC)COC(=O)OCC(C)(C)CN(C)C (centres unmarked) [CPL-309, 3-(((E)-3-butyloct-2-enoyl)oxy)-2-((((3-(dimethylamino)-2,2-dimethylpropoxy)carbonyl)oxy)methyl)propyl(9Z,12Z)-octadeca-9,12-dienoate] | – |
| 0.1387 | 75.82 nm | 93% | CCCCC/C=C\C/C=C\CCCCCCCC(=O)OCC(COC(=O)/C=C(\CCCC)CCCCCCC)COC(=O)OCC(C)(C)CN(C)C (centres unmarked) [CPL-316, 3-(((E)-3-butyldec-2-enoyl)oxy)-2-((((3-(dimethylamino)-2,2-dimethylpropoxy)carbonyl)oxy)methyl)propyl(9Z,12Z)-octadeca-9,12-dienoate] | – |
| 0.1065 | 69.76 nm | 85% | CCCCCC/C(=C/C(=O)OCCCCCCCCN(CCO)CCCCCCCCOC(=O)/C=C(\CCCC)CCCCCC)CCCC [CPL-455-01, ((2-hydroxyethyl)azanediyl)bis(octane-8,1-diyl) (2E,2′E)-bis(3-butylnon-2-enoate)] | – |
